From patent US20240025906A1 (NEURON23, INC., priority 2022, published 2024)
Where two headings read alike, the source gives them in different places.

Legend:
[1] = test system: JAK1/TYK2 pSTAT5 (Tyr694/699) in THP-1 cell line; assay: IFNa-stimulated JAK1/TYK2 pSTAT5 (Tyr694/699) inhibition cellular assay, AlphaLISA; type: cell-based; conditions: Homo sapiens, THP-1 cells, IFNa-stimulated, AlphaLISA (Assay B)
In short: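 THP-1, 2e4 cells/well, HBSS; cpd 1 h 37 °C (10000–0.04 nM final, 6-fold, 8 pt); IFNa 100 ng/mL added, 30 min; lyse, freeze −80 °C; pSTAT5 AlphaLISA, 615 nm; 4PL IC50, bottom fixed 0, slope −1.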

TYK2 JH2 = biological target: T1, TYK2 JH2 (Homo sapiens, UniProt P29597); assay: TYK2 JH2 binding assay (KINOMEscan KdELECT competitive binding); conditions: TYK2 JH2 domain
T1 construct: purchased DiscoverX (KINOMEscan KdELECT service); host or cells: E. coli BL21-derived (T7 phage display) or HEK-293
T1 sequence (P29597 589-875 limits assumed): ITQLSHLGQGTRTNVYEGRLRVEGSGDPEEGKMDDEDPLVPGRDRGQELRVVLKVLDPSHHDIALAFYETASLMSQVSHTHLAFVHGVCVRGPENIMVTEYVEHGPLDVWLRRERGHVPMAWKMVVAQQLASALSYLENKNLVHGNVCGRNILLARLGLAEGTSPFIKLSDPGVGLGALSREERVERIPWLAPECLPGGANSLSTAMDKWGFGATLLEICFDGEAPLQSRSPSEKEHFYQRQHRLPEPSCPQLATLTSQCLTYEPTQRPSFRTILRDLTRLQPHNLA
In short: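 Kd values come from qPCR measurement of kinase retained on an immobilized-ligand resin after 1 h room-temperature competition with compound in an 11-point, 3-fold series.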

[2] = read-out: Cellular_THP1_IFNa-pSTATS_TYK2
[3] = DiscoverX KINOMEscan KdELECT (Assay A), read-out: Biochemical TYK2_DiscoverX_JH2_BND_Kd
[4] = KINOMEscan KdELECT (Assay A), read-out: Biochemical TYK2_DiscoverX_JH2_BND_Kd
[5] = read-out: Cellular THP1_IFNa-pSTATS_IC50
[6] = KINOMEscan KdELECT (Assay A), read-out: Biochemical TYK2_JH2_Kd

Row | SMILES | IC50 [1, 2] | Kd (TYK2 JH2; [3]) | Kd (TYK2 JH2; [4]) | IC50 [1, 5] | Kd (TYK2 JH2; [6])
1 | CNc1ncc(-c2nc3cc(N4CCC5(CC4)COC5)ccc3o2)c2cc(NC(=O)C3CC3)ncc12 [Example 310, N-(5-(5-(2-oxa-7-azaspiro[3.5]nonan-7-yl)benzo[d]oxazol-2-y1)~8-(methylamino)-2,7-naphthyridin-3-yl)cyclopropanecarboxamide] | ≤ 500 nM | ≤ 100 nM |  |  | 
2 | CNc1ncc(-c2nc3cc(N4CC(F)C4)ccc3o2)c2cc(NC(=O)C3CC3)ncc12 [Example 284, N-(5-(5-(3-fluoroazetidin~1-yl)benzo[d]oxazol-2-y1)-8-(methylamino)-2,7-naphthyridin-3-yl)cyclopropanecarboxamide] | ≤ 500 nM | ≤ 100 nM |  |  | 
3 | CNc1ncc(-c2nc3cc(N4CCC[C@@H](C#N)C4)ccc3o2)c2cc(NC(=O)C3CC3)ncc12 [Example 292, (R)-N-(5-(5-(3-cyanopiperidin-1-yl)benzo[d]oxazol-2-y1)-8-(methylamino)-2,7-naphthyridin-3-yl)cyclopropanecarboxamide] | ≤ 500 nM | ≤ 100 nM |  |  | 
4 | CNc1ncc(-c2nc3cc(N4CC[C@H]4C#N)ccc3o2)c2cc(NC(=O)C3CC3)ncc12 [Example 320, (S)—N-(5-(5-(2-cyanoazetidin-1-yl)benzo[d]oxazol-2-yl)-8-(methylamino)-2,7-naphthyridin-3-yl)cyclopropanecarboxamide] | ≤ 500 nM | ≤ 100 nM |  |  | 
5 | CNc1ncc(-c2nc3cc(N4CCN(c5ccncc5)CC4)ccc3o2)c2cc(NC(=O)C3CC3)ncc12 [Example 307, N-(8-(methylamino)-5-(5-(4-(pyridin-4-yl)piperazin-1-yl)benzo[d]oxazol-2-yl)-2,7-naphthyridin-3-yl)cyclopropanecarboxamide] | ≤ 500 nM | ≤ 100 nM |  |  | 
6 | CNc1ncc(-c2nc3ccccc3o2)c2cc(NC(=O)C3CC3)ncc12 [Example 142, N-(5-(benzo[d]oxazol-2-yl)-8-(methylamino)-2,7-naphthyridin-3-yl)cyclopropanecarboxamide] |  |  |  | ≤ 500 nM | ≤ 100 nM
7 | CNc1ncc(-c2nc3cc(N4CCCS4(=O)=O)ccc3o2)c2cc(NC(=O)C3CC3)ncc12 [Example 328, N-(5-(5-(1,1-dioxidoisothiazolidin-2-yl)benzo[d]oxazol-2-yl)-8-(methylamino)-2,7-naphthyridin-3-yl)cyclopropanecarboxamide] | ≤ 500 nM | ≤ 100 nM |  |  | 
8 | CNc1ncc(-c2ccccc2C)c2cc(NC(=O)C3CC3)ncc12 [Example 35, N-(8-(methylamino)-5-(o-tolyl)-2,7-naphthyridin-3-yl)cyclopropanecarboxamide] |  |  |  | > 500 nM | ≤ 100 nM
9 | CNc1ncc(C2=CCCCC2)c2cc(NC(=O)C3CC3)ncc12 [Example 69, N-(5-(cyclohex-1-en-1-yl)-8-(methylamino)-2,7-naphthyridin-3-yl)cyclopropanecarboxamide] |  |  |  | > 500 nM | ≤ 100 nM
10 | CNc1ncc(-c2nc3cc(C4CCOCC4C)ccc3o2)c2cc(NC(=O)C3CC3)ncc12 (centres unmarked) [Example 249, N-(8-(methylamino)-5-(5-(3-methyltetrahydro-2H-pyran-4-yl)benzo[d]oxazol-2-yl)-2,7-naphthyridin-3-yl)cyclopropanecarboxamide] | ≤ 500 nM | ≤ 100 nM |  |  | 
11 | CNc1ncc(-c2ccn(Cc3noc(C)n3)n2)c2cc(NC(=O)C3CC3)ncc12 [Example 152, N-(5-(1-((5-methyl-1,2,4-oxadiazol-3-yl)methyl)-1H-pyrazol-3-yl)-8-(methylamino)-2,7-naphthyridin-3-yl)cyclopropanecarboxamide] |  |  |  | > 500 nM | ≤ 100 nM
12 | CNc1ncc(-c2nc3cc(C4CCN(C5COC5)CC4)ccc3o2)c2cc(NC(=O)C3CC3)ncc12 [Example 360, N-(8-(methylamino)-5-(5-(1-(oxetan-3-yl)piperidin-4-yl)benzo[d]oxazol-2-yl)-2,7-naphthyridin-3-yl)cyclopropanecarboxamide] | ≤ 500 nM | ≤ 100 nM |  |  | 
13 | CNc1ncc(-c2nc3cc(N4CCN(C5COC5)CC4)ccc3o2)c2cc(NC(=O)C3CC3)ncc12 [Example 314, N-(8-(methylamino)-5-(5-(4-(oxetan-3-yl)piperazin-1-yl)benzo[d]oxazol-2-yl)-2,7-naphthyridin-3-yl)cyclopropanecarboxamide] | ≤ 500 nM | ≤ 100 nM |  |  | 
14 | COc1ccc2oc(-c3cnc(NC4CC4)c4cnc(NC(=O)C5CC5)cc34)nc2c1 [Example 367, N-(8-(cyclopropylamino)-5-(5-methoxybenzo[d]oxazol-2-yl)-2,7-naphthyridin-3-yl)cyclopropanecarboxamide] | ≤ 500 nM | ≤ 100 nM |  |  | 

Next, values leading:

Row | IC50 [1, 2] | Kd (TYK2 JH2; [3]) | Kd (TYK2 JH2; [4]) | IC50 [1, 5] | Kd (TYK2 JH2; [6]) | SMILES
15 | ≤ 500 nM | ≤ 100 nM |  |  |  | CNc1ncc(-c2nc3cc(OC)ccc3o2)c2cc(NC(=O)[C@@H]3C[C@@H]3F)ncc12 [Example 388, (1S,2S)-2-fluoro-N-(5-(5-methoxybenzo[d]oxazol-2-y1)-8-(methylamino)-2,7-naphthyridin-3-yl)cyclopropane-1-carboxamide]
16 | ≤ 500 nM | ≤ 100 nM |  |  |  | CC[C@@H]1C[C@H]1C(=O)Nc1cc2c(-c3nc4ccc(OC)cn4n3)cnc(NC)c2cn1 (single isomer, unassigned) [Example 522]
17 | ≤ 500 nM |  | ≤ 100 nM |  |  | CNc1ncc(-c2nc3cc(C4(C)CCCO4)ccc3o2)c2cc(NC(=O)C3CC3)ncc12 (single isomer, unassigned) [Example 949]
18 | ≤ 500 nM |  | ≤ 100 nM |  |  | CNc1ncc(C#Cc2ccc(OC(F)F)cc2)c2cc(NC(=O)C3CC3)ncc12 [Example 654, N-(5-((4-(difluoromethoxy)phenyl)ethynyl)-8-(methylamino)-2,7-naphthyridin-3-yl)cyclopropanecarboxamide]
19 | ≤ 500 nM | ≤ 100 nM |  |  |  | [2H]C([2H])([2H])Nc1ncc(-c2nc3cc(N4CCOCC4)ccc3o2)c2cc(NC(=O)C3(F)CC3)ncc12 [Example 442, 1-fluoro-N-(8-((methyl-d3)amino)-5-(5-morpholinobenzo[d]oxazol-2-yl)-2,7-naphthyridin-3-yl)cyclopropane-1-carboxamide]
20 | ≤ 500 nM | ≤ 100 nM |  |  |  | CNc1ncc(-c2nc3cc(N4CCOCC4)ccc3o2)c2cc(NC(=O)[C@@H]3CC3(F)F)ncc12 [Example 421, (S)-2,2-difluoro-N-(8-(methylamino)-5-(5-morpholinobenzo[d]oxazol-2-yl)-2,7-naphthyridin-3-yl)cyclopropane-1-carboxamide]
21 | ≤ 500 nM |  | ≤ 100 nM |  |  | CNc1ncc(C#Cc2ccc(OC)cn2)c2cc(NC(=O)[C@@H]3C[C@@H]3C(F)(F)F)ncc12 (single isomer, unassigned) [Example 746]
22 | ≤ 500 nM |  | ≤ 100 nM |  |  | CNc1ncc(C#Cc2ccc3ncn(C4CC4)c3c2)c2cc(NC(=O)C3CC3)ncc12 [Example 625, N-(5-((1-cyclopropyl-1H-benzo[d]imidazol-6-yl)ethynyl)-8-(methylamino)-2,7-naphthyridin-3-yl)cyclopropanecarboxamide]
23 | ≤ 500 nM | ≤ 100 nM |  |  |  | CNc1ncc(-c2nc3ccc(N4CCOCC4)cn3n2)c2cc(NC(=O)C3CC3)ncc12 [Example 471, N-(8-(methylamino)-5-(6-morpholino-[1,2,4]triazolo[1,5-a]pyridin-2-yl)-2,7-naphthyridin-3-yl)cyclopropanecarboxamide]
24 | ≤ 500 nM |  | ≤ 100 nM |  |  | CNc1ncc(-c2cc3ccc(OC)cn3n2)c2cc(NC(=O)C3CC3)ncc12 [Example 765, N-(5-(6-methoxypyrazolo[1,5-a]pyridin-2-yl)-8-(methylamino)-2,7-naphthyridin-3-yl)cyclopropanecarboxamide]
25 | ≤ 500 nM |  | ≤ 100 nM |  |  | CNc1ncc(-c2nc3cc(OCC(C)(C)F)ccc3o2)c2cc(NC(=O)C3CC3)ncc12 [Example 941, N-[5-[5-(2-fluoro-2-methyl-propoxy)-1,3-benzoxazol-2-yl]-8-(methylamino)-2,7-naphthyridin-3-yl]cyclopropanecarboxamide]
26 | ≤ 500 nM | ≤ 100 nM |  |  |  | CCNc1ncc(-c2nc3ccc(N4CCOCC4)cn3n2)c2cc(NC(=O)C3(F)CC3)ncc12 [Example 580, N-(8-(ethylamino)-5-(6-morpholino-[1,2,4]triazolo[1,5-a]pyridin-2-yl)-2,7-naphthyridin-3-yl)-1-fluorocyclopropane-1-carboxamide]
27 | ≤ 500 nM |  | ≤ 100 nM |  |  | CNc1ncc(C#Cc2ccc(N3CCO[C@H](C)C3)cc2)c2cc(NC(=O)C3CC3)ncc12 [Example 708, (R)—N-(8-(methylamino)-5-((4-(2-methylmorpholino)phenyl)ethynyl)-2,7-naphthyridin-3-yl)cyclopropanecarboxamide]
28 | ≤ 500 nM |  | ≤ 100 nM |  |  | CNc1ncc(C#Cc2sc(C(C)=O)cc2C)c2cc(NC(=O)C3CC3)ncc12 [Example 959, N-(5-((5-acetyl-3-methylthiophen-2-yl)ethynyl)-8-(methylamino)-2,7-naphthyridin-3-yl)cyclopropanecarboxamide]
